Data taken from patent publication US9109048B2, “Inhibition of tumor growth” (priority 1998, dated 2015).
In brackets after ≈: the same amount, converted by molar mass. Like-named read-outs stand apart in the source and are kept apart here. Square brackets hold non-standard residues; d marks the D form. Ends that are not written are not given here. Peptide text beside a SMILES is read from it. Orn = NCCC[C@H](N)C(=O)O

Columns and labels:
[1] = tested on: MRSA (methicillin resistant S. aureus); assay type: cell-based
Description: (§1) The bacterial strains used were: Escherichia coli ATCC 25922 and Staphylococcus aureus ATCC 25923. All strains were stored at −70° C. The bacteria were grown in 2% Bacto Peptone water (Difco 1807-17-4). All tests were performed with bacteria in mid-logarithmic growth phase. Determination of the minimum inhibitory concentration (MIC) of the peptides for bacterial strains were performed in 1% Bacto Peptone water. A standard microdilution technique with an inoculum of 2×10^6 CFU/ml was used. All assays were performed in triplets. Since the peptides are positively charged and therefore could adhere to the plastic wells, we controlled the actual concentration of the peptides in the solution by HPLC. There was no difference between the concentration of the peptides before or after adding the solution to the plastic wells.
(§2) Table 15 below gives the antibacterial activity and toxicity data for some preferred peptides of the invention. MRSA is methicillin resistant S. aureus and MRSE is methicilin resistant S. epidermidis.

human red blood cells = test: Hemolytic assay; assay type: cell-based
Description: The hemolytic activities of the peptides were determined using fresh human red blood cells. 8 ml blood was taken from a healthy person. 4 ml blood was transferred to a polycarbonate tube containing heparin to a final concentration of 10 U/ml, and the remaining 4 ml blood was transferred to a glass tube containing EDTA with final concentration of 15% EDTA. The erythrocytes were isolated from heparin-treated blood by centrifugation in 1500 rpm for 10 min and washed three times with phosphate-buffered saline (PBS) to remove plasma and buffy coat. The cell pellet was resuspended in PBS to make the final volume of 4 ml. The peptide was diluted to a concentration of 2 mg/ml and 0.1 mg/ml. The peptide was further diluted to the concentrations as stated in Table 1. For each tube PBS was added first, then RBCs and peptide solutions. The hematocrit in the blood treated with EDTA was determined after 30 min with Sysmex K-1000, and the resuspended RBCs were diluted into 10% hematocrit. RBCs in PBS (1%) with and without peptides (Table 18) were incubated in a shaker at 37° for 1 hour and then centrifuged at 4000 rpm for 5 min. The supernatant were carefully transferred to new polycarbonate tubes and the absorbance of the supernatant was measured at 540 nm. Baseline hemolysis was hemoglobin released in the presence of PBS, and 100% hemolysis was hemoglobin released in the presence of 0.1% Triton X-100.

[2] = tested on: Staphylococcus aureus ATCC 25923; test: MIC (minimum inhibitory concentration) test, microdilution; assay type: cell-based
Summary of the method: (§3)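 Strains are stored at −70° C, grown to mid-logarithmic phase in 2% Bacto Peptone water, then exposed to peptides in 1% Bacto Peptone water by standard microdilution with 2×10^6 CFU/ml. Each assay runs in triplicate.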

[3] = tested on: Escherichia coli ATCC 25922; test: as above; assay type: cell-based
Summary of the method: as §3

Meth A fibrosarcoma = test: Tumor regression, murine Meth A fibrosarcoma; assay type: in vivo, mice
Description: Specific pathogen-free CB6F1 (Balb/c×C57 BL/6) female mice of about 8 weeks of age were obtained from Charles River (Germany). The mice were kept on standard laboratory chow and water. Tumor bearing mice were serologically screened for viral (LDH, CMV) and mycoplasmic infection and in all cases tested negative.
After a single inoculation of 5×10^7 viable Meth A cells, different LF peptides were injected intratumorally (LFB-14-31, LFB 17-31 Pmc, 500 μg in a 50 μl dose; LFB 17-31, 1000 μg in a 50 μl dose), on day 7 and day 10. LFB 14-31 was also injected intraperitoneally (PBI), 500 μg/ml. Saline only was injected in the control mice (50 μl) (K1,K2,K3). The tumor diameter (mean of transversal and longitudinal) were measured with an electronic calipper.

[4] = tested on: human promyelotic leukemia cell line HL 60; test: Cytotoxicity on HL 60 cells, MTT; assay type: cell-based
Description: HL 60 cells, 1×10^4 were incubated with peptides 50, 30, 20, 10, 5, 1 μg, 1000-20 μg/ml in 2 hours and coloured with MTT;

[5] = tested on: MRSE (methicilin resistant S. epidermidis); assay type: cell-based
Description: as §1, §2

Molecule | MIC MRSA ([1]; Table 15) [µg/mL] | MIC MRSA ([1]; methicillin resistant) [µM] | EC 50 (toxicity, hemolysis) (human red blood cells; Table 15) [µg/mL] | EC50 (human red blood cells; red cells of human) [µM] | MIC S. aureus ([2]; ATCC 25923) [µM] | MIC S. aureus ([2]; Table 15) [µg/mL] | EC 50 (toxicity, hemolysis) (human red blood cells; red cells of human) [µg/mL] | MIC E. coli ([3]; Table 9) [µg/mL] | MIC E. coli ([3]; Table 15) [µg/mL] | MIC S. aureus ([2]; Table 9) [µg/mL] | effect on Meth A tumors (Meth A fibrosarcoma; injected intratumorally on day 7 and day 10) | effect on Meth A tumors (Meth A fibrosarcoma; treated intraperitoneally) | cytotoxic effect on human HL 60 cells [4] | Minimum inhibitory concentration (MIC) E. coli ATCC 25922 ([3]; Table 1, value in parentheses) [µM] | Minimum inhibitory concentration (MIC) S. aureus ATCC 25923 ([2]; Table 1, value in parentheses) [µM] | MIC MRSE ([5]; Table 15) [µg/mL] | MIC MRSE ([5]; methicilin resistant) [µM] | MIC E. coli ([3]; ATCC 25922) [µM] | MIC E. coli ([3]; Table 12) [µg/mL] | MIC E. coli ([3]; Table 16, peptides with D-amino acids) [µg/mL]
CSCC[C@H](NC(=O)[C@H](CCCN)NC(=O)[C@H](Cc1c[nH]c2ccccc12)NC(=O)[C@H](C)NC(=O)[C@H](Cc1c[nH]c2ccccc12)NC(=O)[C@H](CCCN)NC(=O)[C@H](Cc1ccccc1)NC(=O)[C@H](C)NC(=O)[C@H](CCCN)NC(=O)[C@H](CCCN)NC(=O)[C@H](Cc1c[nH]c2ccccc12)NC(=O)[C@H](C)NC(=O)[C@@H]1CCCN1)C(=O)N[C@@H](CC(C)C)C(=O)N[C@@H](CCCN)C(=O)N[C@@H](CCCN)C(=O)N[C@@H](C)C(=O)N[C@@H](C)C(=O)O (H-PAW[Orn][Orn]AF[Orn]WAW[Orn]ML[Orn][Orn]AA-OH; N-terminus assumed) | 2.5 | 1.2 | 425 (≈ 202 µM) | 202 | 1.2 | 2.5 | – | – | – | – | – | – | – | – | – | – | – | – | – | –
CSCC[C@H](NC(=O)[C@H](CCCNC(=N)N)NC(=O)[C@H](Cc1ccc2ccccc2c1)NC(=O)[C@H](CCC(N)=O)NC(=O)[C@H](Cc1ccc2ccccc2c1)NC(=O)[C@H](CCCNC(=N)N)NC(=O)[C@H](CCCNC(=N)N)NC(=O)[C@H](CSCNC(C)=O)NC(=O)[C@H](CCCCN)NC(=O)[C@@H](N)Cc1ccccc1)C(=O)N[C@@H](CCCCN)C(=O)N[C@@H](CCCCN)C(=O)N[C@@H](CC(C)C)C(=O)NCC(=O)N[C@@H](C)C(=O)O [LFB Nal6,8] | 5.0 | – | – | – | – | 20.0 | >1000 | 10 | 10.0 | 20 | – | – | – | – | – | – | – | – | – | –
CSCC[C@H](NC(=O)[C@H](CCCNC(=N)N)NC(=O)[C@H](Cc1c[nH]c2ccccc12)NC(=O)[C@H](CCC(N)=O)NC(=O)[C@H](Cc1c[nH]c2ccccc12)NC(=O)[C@H](CCCNC(=N)N)NC(=O)[C@H](CCCNC(=N)N)NC(=O)[C@H](CSCNC(C)=O)NC(=O)[C@H](CCCCN)NC(=O)[C@H](Cc1ccccc1)NC(=O)[C@H](Cc1c[nH]c2ccccc12)NC(=O)[C@H](CCC(=O)O)NC(=O)[C@@H]1CCCN1)C(=O)N[C@@H](CCCCN)C(=O)N[C@@H](CCCCN)C(=O)N[C@@H](CC(C)C)C(=O)NCC(=O)N[C@@H](C)C(=O)O [LFB 14-31] | – | – | – | – | – | – | – | – | – | – | induced regression of the Meth A tumors | tumors were also eradicated | no cytotoxic effect | 28 (≈ 69.4 µg/mL) | 80 (≈ 198 µg/mL) | – | – | – | – | –
RWWRYWR-NH2 [LFM 18-24 R1,7 W2,3,6Y5NH2, ARG-TRP-TRP-ARG-TYR-TRP-ARG-CONH2] | – | – | – | > 829 | 0.4 to 0.8 | – | >1000 | – | 10.0 | – | – | – | – | – | – | 1.0 | 0.8 | 8.3 | 10 | 10
RRWYRWWR-NH2 [LFM 17-24 R1,2,8 W3,7Y4NH2] | 1.0 | 0.7 | – | > 733 | – | – | >1000 | – | 5.0 | – | – | – | – | – | – | 2.5 | 1.8 | 3.7 | 5 | –
